This note sets out measurements from patent publication US12344621B2, “CGRP antagonist compounds” (Nxera Pharma UK Limited, priority 2019, dated 2025).

The structures appear in SMILES notation.

This assay deals with T1, human CGRP receptor (Homo sapiens, UniProt O60894+Q16602).
T1 construct: SK-N-MC endogenously expressing the human CGRP receptor; endogenous in cells; host or cells: SK-N-MC human neuroblastoma cells
As to the kind of experiment: cAMP functional assay (HTRF cAMP dynamic-2) in SK-N-MC cells. It is filed as cell-based. The following applies: SK-N-MC cells endogenously expressing human CGRP receptor; challenge with EC80 human CGRP (0.3 nM); functional pKb converted from pIC50 by modified Cheng-Prussoff equation. The method, then: Biological Activity cAMP Functional Assay
cAMP production following receptor activation was determined using the Homogeneous Time-Resolved Fluorescence (HTRF) cAMP dynamic-2 assay (Cisbio, France). The human neuroblastoma cell line SK-N-MC endogenously expressing the human CGRP receptor was seeded at a density of 12,500 cells/well in solid walled 96 well half area plates (Costar, Catalog Number 3688, Corning Life Sciences, Germany). After 16 h incubation at 37° C. media was removed and cells were incubated at 37° C. for 30 min in serum free media containing 500 μM IBMX (Tocris, Abingdon, UK, Catalog Number 2845) and increasing concentrations of test antagonist. Following this cells were challenged with an EC80 concentration of human CGRP (0.3 nM) for a further 30 min at 37° C. and then cAMP production was determined as manufacturer's instructions before plates were read on a PheraStar fluorescence plate reader (BMG LabTech, Germany). IC50 values were derived from the inhibition curve. The pIC50 values (where pIC50=−log 10 IC50) were converted to a functional pKb value using a modified Cheng-Prussoff equation where Kd=agonist EC50 and L hot=agonist challenge concentration. The pKb values of certain compounds of the invention are detailed in Table 4.
A general note: Time-resolved FRET reads energy transfer from a long-lived donor to a nearby acceptor.

T1 sequence (Q16602 23-461): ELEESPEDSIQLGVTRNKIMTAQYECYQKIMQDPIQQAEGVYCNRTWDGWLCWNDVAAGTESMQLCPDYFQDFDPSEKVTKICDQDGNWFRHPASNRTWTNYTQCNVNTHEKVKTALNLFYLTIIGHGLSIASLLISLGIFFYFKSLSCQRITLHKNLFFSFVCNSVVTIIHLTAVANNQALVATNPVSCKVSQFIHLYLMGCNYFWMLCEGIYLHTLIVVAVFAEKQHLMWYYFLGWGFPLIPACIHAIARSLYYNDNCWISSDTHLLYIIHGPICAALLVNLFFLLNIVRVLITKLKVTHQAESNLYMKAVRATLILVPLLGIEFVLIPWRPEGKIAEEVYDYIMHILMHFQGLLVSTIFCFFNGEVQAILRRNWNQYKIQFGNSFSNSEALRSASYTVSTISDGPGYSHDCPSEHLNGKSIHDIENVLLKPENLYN
T1 sequence (O60894 27-148): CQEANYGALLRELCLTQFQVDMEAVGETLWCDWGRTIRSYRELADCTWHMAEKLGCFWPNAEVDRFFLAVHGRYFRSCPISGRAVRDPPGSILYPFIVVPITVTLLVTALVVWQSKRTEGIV

Turning to `CN1CCOCCOC/C=C/c2cnc3c(c2)[C@]2(Cc4ccc(cc4C2)C(=O)NC(Cc2cc(Cl)c4[nH]ncc4c2)C1=O)C(=O)N3` (mixture of isomers) [Example 3-9, (1R,20E)-10-[(7-chloro-1H-indazol-5-yl)methyl]-12-methyl-15,18-dioxa-9,12,24,26-tetrazapentacyclo[20.5.2.11,4.13,7.025,28]hentriaconta-3,5,7(30),20,22(29),23,25(28)-heptaene-8,11,27-trione], the Kb was 1.26 nM.
For `Cc1cc(C[C@H]2NC(=O)c3ccc4c(n3)CC3(C4)C(=O)Nc4ncc(cc43)/C=C/COCCOCCN(C)C2=O)cc2cn[nH]c12` (single isomer, unassigned) [Example 8-1] the value was 20 nM.
The compound `Cc1cc(C[C@H]2NC(=O)c3ccc4c(n3)CC3(C4)C(=O)Nc4ncc(cc43)/C=C/COCCOCCN(C)C2=O)cc2cn[nH]c12` (single isomer, unassigned) [Example 8-2] showed a Kb of 31.6 nM.
For `Cc1cc(C[C@H]2NC(=O)c3cnc4c(c3)C[C@]3(C4)C(=O)Nc4ncc(cc43)/C=C/COCCOCCN(C)C2=O)cc2cn[nH]c12` [Example 1-2, (1R,10R,20E)-12-methyl-10-[(7-methyl-1H-indazol-5-yl)methyl]-15,18-dioxa-5,9,12,24,26-pentazapentacyclo[20.5.2.11,4.13,7.025,28]hentriaconta-3,5,7(30),20,22(29),23,25(28)-heptaene-8,11,27-trione] the value was 200 nM; for `Cc1cc(C[C@@H]2NC(=O)c3cnc4c(c3)C[C@@]3(C4)C(=O)Nc4ncc(cc43)/C=C/COCCOCCN(C)C2=O)cc2cn[nH]c12` [Example 1-3, (1S,10S,20E)-12-methyl-10-[(7-methyl-1H-indazol-5-yl)methyl]-15,18-dioxa-5,9,12,24,26-pentazapentacyclo[20.5.2.11,4.13,7.025,28]hentriaconta-3,5,7(30),20,22(29),23,25(28)-heptaene-8,11,27-trione], 10 nM.
As to `Cc1cc(C[C@H]2NC(=O)c3cnc4c(c3)C[C@@]3(C4)C(=O)Nc4ncc(cc43)/C=C/COCCOCCOCCN(C)C2=O)cc2cn[nH]c12` [Example 1-4, (1S,10R,23E)-12-methyl-10-[(7-methyl-1H-indazol-5-yl)methyl]-15,18,21-trioxa-5,9,12,27,29-pentazapentacyclo[23.5.2.11,4.13,7.028,31]tetratriaconta-3,5,7(33),23,25(32),26,28(31)-heptaene-8,11,30-trione], the Kb is 0.251 nM.
The value for `Cc1cc(C[C@H]2NC(=O)c3cnc4c(c3)C[C@@]3(C4)C(=O)Nc4ncc(cc43)/C=C/COCCCCN(C)C2=O)cc2cn[nH]c12` [Example 1-7, (1S,10R,19E)-12-methyl-10-[(7-methyl-1H-indazol-5-yl)methyl]-17-oxa-5,9,12,23,25-pentazapentacyclo[19.5.2.11,4.13,7.024,27]triaconta-3,5,7(29),19,21(28),22,24(27)-heptaene-8,11,26-trione] was 0.0631 nM; that for `Cc1cc(C[C@H]2NC(=O)c3cnc4c(c3)C[C@@]3(C4)C(=O)Nc4ncc(cc43)CCCOCCOCCN(C)C2=O)cc2cn[nH]c12` [Example 1-8, (1S,10R)-12-methyl-10-[(7-methyl-1H-indazol-5-yl)methyl]-15,18-dioxa-5,9,12,24,26-pentazapentacyclo[20.5.2.11,4.13,7.025,28]hentriaconta-3,5,7(30),22(29),23,25(28)-hexaene-8,11,27-trione] was 1.26 nM.
For `Cc1cc(C[C@H]2NC(=O)c3cc4c(cn3)C[C@]3(C4)C(=O)Nc4ncc(cc43)/C=C/COCCOCCN(C)C2=O)cc2cn[nH]c12` [Example 2-1, (1S,10R,20E)-12-methyl-10-[(7-methyl-1H-indazol-5-yl)methyl]-15,18-dioxa-6,9,12,24,26-pentazapentacyclo[20.5.2.11,4.13,7.025,28]hentriaconta-3,5,7(30),20,22(29),23,25(28)-heptaene-8,11,27-trione] the value was 2.51 nM.
